Series [1] relates to Enterovirus. In words: Antiviral activity against EV71 infected in human RD cells assessed as protection from virus-induced cytopathogenicity by measuring reduction in progeny virus titer incubated for 48 hrs by MTT assay. The series is classed as functional, 71.
Series [2] deals with Enterovirus. Nature of the series: Antiviral activity against EV71 infected in human RD cells assessed as viral infection in cell at 100 uM incubated for 46.5 hrs by fluorescence microscopy (reference value: 80.67 %). The series is classed as functional, 71.
Series [3] is described as follows: Cytotoxicity against human RD cells incubated for 48 hrs by MTT assay. The series is classed as toxicity, cell-based. A general note: Formazan colour is commonly taken as a measure of viable cells.
The subject of series [4] is Enterovirus. In words: Antiviral activity against EV71 infected in human RD cells assessed as inhibition of virus-induced cell death at 50 uM incubated for 48 hrs by MTT assay relative to control. The series is classed as functional. Particulars: Enterovirus, 71, RD.
Another series relates to RD. Nature of the series: Inhibition of morphological changes in human RD cells infected with EV71 assessed as reduction in cytopathic effect at 50 to 100 uM measured after 48 hrs by Reed-Muench method. The series is classed as functional, cell-based. Conditions: Enterovirus, 71, dose 50-100 µM. (Protection from cytopathic effect is a common read-out in antiviral testing.)

The test system of series [5] is Enterovirus. Nature of the series: Antiviral activity against EV71 infected in human RD cells assessed as increase in cell viability at 3.125 to 100 uM preincubated with compound followed by viral infection measured after 48 hrs by MTT assay. The series is classed as functional, organism-based. Particulars: 71, dose 3.125-100 µM.
A short description of series [6]: Selectivity index, ratio of CC50 for cytotoxicity against HEp-2 cells to EC50 for antiviral activity against CVB3 infected in HEp-2 cells. The series is classed as toxicity, cell-based. Particulars: human, read-out: Ratio CC50/EC50.
In series [7] the test system is Enterovirus. In words: Antiviral activity against EV71 infected in human RD cells assessed as protection from virus-induced cytopathogenicity incubated for 48 hrs by MTT assay. The series is classed as functional, organism-based. Particulars: Enterovirus, 71, RD.
The test system of a further series is HEp-2. In words: Inhibition of morphological changes in HEp-2 cells infected with CVB3 assessed as reduction in cytopathic effect at 50 to 100 uM measured after 48 hrs by Reed-Muench method. The series is classed as functional, cell-based. Conditions: Coxsackievirus B3, dose 50-100 µM.
Series [8] relates to Coxsackievirus B3. In words: Antiviral activity against CVB3 infected in HEp-2 cells assessed as inhibition of virus-induced cell death at 25 uM incubated for 48 hrs by MTT assay relative to control. Particulars: Enterovirus B. The series is classed as functional.
Series [9] deals with Coxsackievirus B3. In words: Antiviral activity against CVB3 infected in HEp-2 cells assessed as inhibition of virus-induced cell death at 50 uM incubated for 48 hrs by MTT assay relative to control. The series is classed as functional. Conditions: Enterovirus B.
Series [10] is described as follows: Selectivity index, ratio of CC50 for cytotoxicity against human RD cells to EC50 for antiviral activity against EV71 infected in human RD cells. The series is classed as toxicity, cell-based. Particulars: read-out: Ratio CC50/EC50.
Series [11] concerns Coxsackievirus B3. In words: Antiviral activity against CVB3 infected in HEp-2 cells assessed as protection from virus-induced cytopathogenicity incubated for 48 hrs by MTT assay. The series is classed as functional, organism-based. Particulars: Enterovirus B, HEp-2, 48 h.
In series [12] the test system is Enterovirus. Nature of the series: Antiviral activity against EV71 infected in human RD cells assessed as inhibition of virus-induced cell death at 100 uM incubated for 48 hrs by MTT assay relative to control. The series is classed as functional, 71. Particulars: for inhibition at 100 µM: Enterovirus, 71, RD.
Series [13] concerns Enterovirus. In words: Virucidal activity against EV71 infected in human RD cells at 100 uM pretreated compound with virus followed by inoculation of mixture into host cells measured after 2 days by Reed-Muench method. The series is classed as functional, organism-based. Conditions: 71, time 2.0 day.
Series [14] relates to Enterovirus. In words: Inhibition of EV71 3Dpol assessed as decrease in RNA chain extension by polyacrylamide gel electrophoresis. Conditions: 71.
For series [15], the system named is Enterovirus. Nature of the series: Antiviral activity against EV71 infected in human RD cells assessed as inhibition of viral RNA synthesis at 100 uM incubated for 32 hrs by qRT-PCR analysis. The series is classed as functional, organism-based. Particulars: 71. For orientation: Quantitative PCR measures a nucleic acid by following its amplification.
The subject of series [16] is Enterovirus. Nature of the series: Antiviral activity against EV71 infected in human RD cells assessed as inhibition of virus-induced cell death at 25 uM incubated for 48 hrs by MTT assay relative to control. The series is classed as functional. Conditions: Enterovirus, 71, RD.
Series [17] deals with Enterovirus. In words: Inhibition of EGFP-fused EV71 2Apro transfected in host cells co-expressing FLuc assessed as reduction in firefly luciferase activity incubated for 24 to 36 hrs by chemiluminescence analysis. The series is classed as cell-based. Particulars: 71, time 24-36 hrs.
In series [18] the test system is Enterovirus. In words: Antiviral activity against EV71 infected in human RD cells assessed as viral infection in cell at 50 uM incubated for 46.5 hrs by fluorescence microscopy (reference value: 80.67 %). The series is classed as functional, 71.
Series [19] deals with Coxsackievirus B3. In words: Antiviral activity against CVB3 infected in HEp-2 cells assessed as protection from virus-induced cytopathogenicity by measuring reduction in progeny virus titer incubated for 48 hrs by MTT assay. The series is classed as functional.
For series [20], the system named is Coxsackievirus B3. Nature of the series: Antiviral activity against CVB3 infected in HEp-2 cells assessed as inhibition of virus-induced cell death at 100 uM incubated for 48 hrs by MTT assay relative to control. The series is classed as functional. Conditions: for inhibition at 100 µM: Enterovirus B, HEp-2, 48 h.
Series [21] concerns Enterovirus. In words: Antiviral activity against EV71 infected in human RD cells assessed as increase in cell viability at 3.125 to 100 uM incubated with compound and virus measured after 48 hrs by MTT assay. The series is classed as functional, organism-based. Particulars: 71, dose 3.125-100 µM.
The test system of series [22] is Enterovirus. Nature of the series: Antiviral activity against EV71 infected in human RD cells assessed as reduction in viral protein translation at 100 uM incubated for 32 hrs by immunofluorescence analysis. The series is classed as functional, organism-based. Conditions: 71.
For series [23], the system named is Coxsackievirus B3. Nature of the series: Antiviral activity against CVB3 infected in HEp-2 cells assessed as inhibition of virus-induced cell death at 25 to 100 uM incubated for 48 hrs by MTT assay. The series is classed as functional, organism-based. Particulars: dose 25-100 µM.
Series [24] concerns Enterovirus. Nature of the series: Antiviral activity against EV71 infected in human RD cells assessed as inhibition of virus-induced cell death at 25 to 100 uM incubated for 48 hrs by MTT assay. The series is classed as functional, organism-based. Particulars: 71, dose 25-100 µM.
Series [25] is described as follows: Cytotoxicity against human HEp-2 cells incubated for 48 hrs by MTT assay. The series is classed as toxicity, cell-based.
In series [26] the test system is Enterovirus. Nature of the series: Antiviral activity against EV71 infected in human RD cells assessed as cell viability at 100 uM pre-infected with virus followed by compound treatment measured after 48 hrs post-infection by MTT assay relative to control. The series is classed as functional, 71.
Series [27] has as its system Enterovirus. In words: Antiviral activity against EV71 infected in human RD cells assessed as log reduction in viral replication at 100 uM incubated for 4 to 32 hrs by […] method. The series is classed as functional, 71. Conditions: time 4-32 hrs.

Two compounds from ChEMBL document CHEMBL6114999, “Natural pyrrolo[1,2-a]quinazolinone derivatives: Design, synthesis, characterization, and bio-evaluation as novel antiviral agents” (Eur J Med Chem, 2025) can be followed below.

One may read the CC50 as the concentration giving 50% cytotoxicity. Broadly, the inhibition is the drop in the measured response relative to a control, in per cent. For orientation: EC50 means the concentration giving half of the maximal effect.

Structures are written as SMILES. Calls of active or inactive are those of the source. The rule behind the calls is not given here.

With `CN1C(=O)c2ccccc2N2C(=O)CCC12C(=O)NCCc1c[nH]c2ccccc12` (stereo not given), the “log(activity)” value with Enterovirus [1] is on record as approximately 2.73; in the series on Coxsackievirus B3 [19], approximately 4.03; with Enterovirus [27], 3.25. Moreover, the results for the Activity in the series with Enterovirus [2], in the series with Enterovirus [18] and in the series on Enterovirus [26] were 5.34%, 22.66% and more than 80%, respectively. Moreover, the results for the CC50 at 48 h in [3] and in series [25] were 265 µM and 217 µM, respectively. In addition, the inhibition at 50 µM in the series on Enterovirus [4] was 56.7%; in the series on Coxsackievirus B3 [9], 40.8%. Also, the inhibition result with RD and in the series with HEp-2 was “Active; Compound Successfully Protected Host Cells From Pathological Changes Or Apoptosis” each time. For the same compound, the result in the series on Enterovirus [5], with Enterovirus [13] and with Enterovirus [21] was inactive. Besides, the selectivity ratio in series [6] worked out at 2.6; in series [10], 17.9. Also, the results for the concentration giving a half-maximal response (EC50) in the series on Enterovirus [7] and in the series on Coxsackievirus B3 [11] were 14.8 µM and 82 µM, respectively. Moreover, the inhibition at 25 µM is 24.2% in the series on Coxsackievirus B3 [8] and 33% in the series with Enterovirus [16]. Moreover, the inhibition at 100 µM was 62.3% with Enterovirus [12] and 54.4% with Coxsackievirus B3 [20]. Further, the inhibition result with Enterovirus [14] was “inactive”. For the same compound, the inhibition entry with Enterovirus [15], with Enterovirus [17] and in the series on Enterovirus [24] was “Active” each time. Moreover, the result with Enterovirus [22] was Active. Moreover, in the series on Coxsackievirus B3 [23], the “antiviral activity call (active/inactive)” value is “Active”.
For the compound `NC(=O)c1ncn([C@@H]2O[C@H](CO)[C@@H](O)[C@H]2O)n1` [RIBAVIRIN], the figures for the “log(activity)” value with Enterovirus [1] and in the series on Coxsackievirus B3 [19] were 2.3 and 3.07, respectively. In addition, the results for the CC50 at 48 h in series [3] and in series [25] were 267 µM and 204 µM, respectively. The inhibition at 50 µM is 61.1% in the series on Enterovirus [4] and 60.7% with Coxsackievirus B3 [9]. Also, the selectivity ratio stood at 8.2 in series [6] and 6.6 in [10]. Moreover, the EC50 in the series on Enterovirus [7] turned out to be 40.4 µM; with Coxsackievirus B3 [11], 24.7 µM. Moreover, the results for the inhibition at 25 µM with Coxsackievirus B3 [8] and with Enterovirus [16] were 47.3% and 53.8%, respectively. In addition, the Imax in the series with Enterovirus [12] is 62.33%; with Coxsackievirus B3 [20], 71%. The values for the inhibition at 100 µM with Enterovirus [12] and in the series on Coxsackievirus B3 [20] were 69.7% and 71%, respectively.
